Measured values published in PMC4104174 (Journal of the American Chemical Society, 2014).
Like-named read-outs stand apart in the source and are kept apart here.

Tests used:
hCAII = conditions: cited from earlier work
[1] = biological target: human carbonic anhydrase II (hCAII) (Homo sapiens, UniProt P00918); assay: hCAII activity assay; type: biochemical
[2] = free ligand acidity; cited from earlier work

| Molecule | Ki [1] [µM] | pKa [2] | also measured |
| --- | --- | --- | --- |
| 2-mercaptopyridine-N-oxide [1,2-HOPTO] | – | – | Ki (hCAII; previously reported): 850 µM |
| Oc1ccccc1S [2-MP, 2-mercaptophenol] | – | – | Ki (hCAII): 3 ± 0.7 µM |
| Cc1cc(=S)c(O)co1 [ATM, 5-hydroxy-2-methyl-4H-pyran-4-thione] | 650 ± 60 | 7.64 | fold more potent (Ki) than TM and TPMA ([1]; ATM vs TM and TPMA, hCAII): roughly 2 fold |
| Cc1occc(=S)c1O [TM, 3-hydroxy-2-methyl-4H-pyran-4-thione] | 1400 ± 200 | 8.06 | – |
| Oc1coccc1=S [TPMA, 3-hydroxy-4H-pyran-4-thione] | 1100 ± 200 | – | – |
